Patent US6558900B2, “Regulation of apoptosis and in vitro model for studies thereof” (Emory University, priority 1996, dated 2003)

How the values were obtained:
hamster liver nuclei = assay: Reconstitution of DNA fragmentation and nuclear morphological change in HeLa S-100 immunodepleted of cytochrome c; type: biochemical
Method: Cytochrome c present in the HeLa cell S-100 was immunodepleted as described in the Example 10. In FIG. 7A, 10 μl aliquots of HeLa S-100 (50 μg) (lanes 1 and 2), or 10 μl aliquots of HeLa S-100 immunodepleted of cytochrome c (lanes 3 and 4), or 10 μl of HeLa S-100 immunodepleted of cytochrome c supplemented with 0.2 μg Apaf-2 purified through the Mono S column (H) (lanes 5 and 6), bovine heart cytochrome c (B) (lanes 7 and 8), or rat liver cytochrome c (R) (lanes 9 and 10), were incubated with aliquots of 3 μl in vitro translated, ^35S-labeled CPP32 in the absence (lanes 1, 3, 5, 7, 9) or presence (lanes 2, 4, 6, 8, 10) of 1 mM dATP at 30° C. for 1 hr in a final reaction volume of 20 μl of buffer A. Samples were subjected to SDS-PAGE and transferred to a nitrocellulose filter which were then exposed to film for 16 hr at room temperature. In FIG. 7B, HeLa S-100 (50 μg) immunodepleted of cytochrome c were reconstituted with the indicated amount of Apaf-2 (purified through Mono S column step) in a CPP32 cleavage reaction as described in FIG. 7A. The cleaved products (p20) were quantified in a Fuji-1000 phosphorimager machine and plotted in comparison with that generated by HeLa S-100. In FIG. 7C, aliquots of 50 μl of HeLa S-100 (250 μg) (lanes 1 and 2), or 50 μl of HeLa S-100 immunodepleted of cytochrome c (lanes 3 and 4), or 50 μl of HeLa S-100 immunodepleted of cytochrome c supplemented with 1 μg apaf-2 purified through the Mono S column (H) (lanes 5 and 6), bovine heart cytochrome c (B) (lanes 7 and 8), or rat liver cytochrome c (R) (lanes 9 and 10), were incubated with aliquots of 6 μl hamster liver nuclei in the absence (lanes 1, 3, 5, 7, 9) or presence (lanes 2, 4, 6, 8, 10) of 1 mM dATP at 37° C. for 2 hr in a final reaction volume of 60 μl. The DNA were isolated as described in the Examples, analyzed on 2% agarose gel electrophoresis, and the DNA was visualized by ethidium bromide staining. In FIG. 7D, DNA fragmentation assays were carried out as in FIG. 7C using HeLa S-100 immunodepleted of cytochrome c alone (a,b) or supplemented with Apaf-2 purified through Mono S column step (c,d) in the absence (a,c) or presence of 1 mM dATP (b,d). After 2 hr incubation at 37° C., an aliquot of each reaction (30 μl) was stained with 4′,6′-diamidino-2-phenylindole (DAPI), and observed under a fluorescence microscope with a UV-2A combination filter.
To rule out the possibility that the Apaf-2 activity is due to a minor contaminating protein that co-purified with cytochrome c, an immunodepletion experiment was carried out using a monoclonal antibody against rat cytochrome c. This monoclonal antibody cross-reacts with purified Apaf-2. […]

CPP32 = assay: Reconstitution of dATP-dependent activation of CPP32 with S-cytosol (sucrose-prepared HeLa cytosol); type: biochemical, human; settings: S-cytosol 50 μg supplemented with 0.2 μg, 1 mM dATP
Method: On day 0, Hela cells were set up at 5×10^5 cells per 100 mm dish in medium A as described hereinbelow. On day 2, cells were harvested, collected by centrifugation (1000 g, 10 min, 4° C.). After washed once with ice-cold PBS, the cell pellet was suspended in 5 volumes of ice-cold buffer A containing 250 mM sucrose. The cells were disrupted by douncing 3 times in a 5 ml Wheaton douncer with a pestle polished with sand paper. After microcentrifugation for 5 min at 4° C., the supernatants were further centrifuged at 10^5×g for 30 min in a table top ultracentrifuge (Beckman Instruments, Fullerton, Calif.). The resulting supernatants were designated as S-cytosol. Aliquots of S-cytosol (50 μg) alone (lanes 1 and 2), or supplemented with 0.2 μg Apaf-2 purified through the Mono S column (lanes 3 and 4), were incubated with aliquots of 3 μl in vitro translated, ^35S-labeled CPP32 in the absence (lanes 1, 3) or presence (lanes 2, 4) of 1 mM dATP at 30° C. for 1 hr in a final reaction volume of 20 μl of buffer A. Samples were subjected to SDS-PAGE and transferred to a nitrocellulose filter which were then exposed to film for 16 hr at room temperature.
Human cytochrome c is encoded by a single copy nuclear gene [Evans and Scarpulla (1988) Proc. Natl. Acad. Sci. USA 85, 9625-9629] which is translated on cytoplasmic ribosomes as apocytochrome c. […]

**Q.** What does the source list for “Apaf-2: 15 kDa factor bound to phosphocellulose column, purified from HeLa S-100, identified as human cytochrome c”?
**A.** restoration of DNA fragmentation (hamster liver nuclei; 1 μg added to immunodepleted HeLa S-100, 1 mM dATP): restored; nuclear morphological change (DAPI) (hamster liver nuclei; immunodepleted S-100 supplemented with Apaf-2, 1 mM dATP): accompanied by the morphological change in the co-incubated nuclei that is characteristic of apoptosis; dATP-dependent activation of CPP32 in S-cytosol (CPP32): incapable of initiating the dATP-dependent activation of CPP32 (lanes 1 and 2) unless purified cytochrome c was added
